How the values were obtained:
ryanodine receptor = target: T1, ryanodine receptor (Oryctolagus cuniculus, UniProt P11716); experiment: Single channel recording, washout (Woearly, Wolate) after Xt3a, sheet "Figure 3B" (RyR isoform not given); type: biochemical
T1 construct: skeletal SR vesicles were isolated from the back and leg muscles of mature female New Zealand white rabbits; from tissue; host or cells: rabbit back and leg skeletal muscle, sarcoplasmic reticulum vesicles
Description: Supplement 41467_2023_36579_MOESM6_ESM.xlsx, sheet "Figure 3B" | column: Woearly; Wolate

α7 nAChR = experiment: FLIPR Ca2+ assay, inhibition of endogenous α7 nAChR; type: cell-based, human; details: for Ca2+ response relative to control response: 3 µM Xt3a pre-treatment, choline 30 μM/PNU-120596 10 μM, over 300 s
Experimental: SH-SY5Y human neuroblastoma cells (European Collection of Authenticated Cell Culture, Sigma Aldrich, 94030304-1VL) were cultured in RPMI media (ThermoFisher Scientific, Scoresby, Australia) supplemented with 15% foetal bovine serum and L-glutamine (1 mM) and passaged at approximately 80% confluency with TrypLE Express (Thermo Fisher, Australia). For fluorescence imaging, cells were plated on CellBIND (Corning) 384-well black-walled imaging plates at a density of 20,000–30,000 cells/well in complete media and cultured for 48 h at 37 °C/5% CO2.
Briefly, SH-SY5Y cells were loaded with Calcium 4 no-wash dye (Molecular Devices) diluted in physiological salt solution (composition in mM: NaCl 140, D-glucose 11.5, KCl 5.9, MgCl2 1.4, NaH2PO4 1.2, NaHCO3 5, CaCl2 1.8, HEPES 10) for 30 min at 37 °C. A two-addition FLIPR^Tetra (Molecular Devices) protocol using the following settings was used to measure fluorescence responses: excitation 470–495 nm; emission 515–575 nm; excitation intensity 80%; excitation duration 0.8 s; gain 140; read interval 1/s; read number 300/addition. Responses mediated via endogenously expressed ion channels were elicited by addition of: choline (30 μM)/PNU-120596 (10 μM) for α7 nAChR-mediated responses; nicotine (30 μM) for α3β2/α3β4 nAChR-mediated responses; KCl (90 mM)/CaCl2 (5 mM) for CaV1.3-mediated responses; KCl (90 mM)/CaCl2 (5 mM) + nifedipine (10 μM) for CaV2.2-mediated responses; vertridine (70 μM) for NaV1.2-mediated responses; and veratridine (4 μM)/OD1 (300 nM) for NaV1.7-mediated responses. Raw fluorescence readings were converted to response over baseline using the analysis tool Screenworks 3.1.1.4 (Molecular Devices) and were expressed relative to the maximum increase in fluorescence of control responses and plotted using GraphPad Prism 9.3.1.
In the cell-based FLIPR assays statistical analysis was performed using GraphPad Prism 9.3.1. Statistical significance was defined as p < 0.05, and determined by one-sample t-test assessing difference to the control value of 100%. In α7 nAChR, α3-containing nAChR, CaV1.3, CaV2.2, NaV1.2 and NaV1.7 channels (Supplementary Fig. 5B), with distribution (t) and degrees of freedom (df) being: t = 0.9683, df = 2 (α7); t = 1.338, df = 2 (α3); t = 1.775, df = 2 (NaV1.2); t = 1.478

T1 sequence (P11716 whole entry, canonical isoform): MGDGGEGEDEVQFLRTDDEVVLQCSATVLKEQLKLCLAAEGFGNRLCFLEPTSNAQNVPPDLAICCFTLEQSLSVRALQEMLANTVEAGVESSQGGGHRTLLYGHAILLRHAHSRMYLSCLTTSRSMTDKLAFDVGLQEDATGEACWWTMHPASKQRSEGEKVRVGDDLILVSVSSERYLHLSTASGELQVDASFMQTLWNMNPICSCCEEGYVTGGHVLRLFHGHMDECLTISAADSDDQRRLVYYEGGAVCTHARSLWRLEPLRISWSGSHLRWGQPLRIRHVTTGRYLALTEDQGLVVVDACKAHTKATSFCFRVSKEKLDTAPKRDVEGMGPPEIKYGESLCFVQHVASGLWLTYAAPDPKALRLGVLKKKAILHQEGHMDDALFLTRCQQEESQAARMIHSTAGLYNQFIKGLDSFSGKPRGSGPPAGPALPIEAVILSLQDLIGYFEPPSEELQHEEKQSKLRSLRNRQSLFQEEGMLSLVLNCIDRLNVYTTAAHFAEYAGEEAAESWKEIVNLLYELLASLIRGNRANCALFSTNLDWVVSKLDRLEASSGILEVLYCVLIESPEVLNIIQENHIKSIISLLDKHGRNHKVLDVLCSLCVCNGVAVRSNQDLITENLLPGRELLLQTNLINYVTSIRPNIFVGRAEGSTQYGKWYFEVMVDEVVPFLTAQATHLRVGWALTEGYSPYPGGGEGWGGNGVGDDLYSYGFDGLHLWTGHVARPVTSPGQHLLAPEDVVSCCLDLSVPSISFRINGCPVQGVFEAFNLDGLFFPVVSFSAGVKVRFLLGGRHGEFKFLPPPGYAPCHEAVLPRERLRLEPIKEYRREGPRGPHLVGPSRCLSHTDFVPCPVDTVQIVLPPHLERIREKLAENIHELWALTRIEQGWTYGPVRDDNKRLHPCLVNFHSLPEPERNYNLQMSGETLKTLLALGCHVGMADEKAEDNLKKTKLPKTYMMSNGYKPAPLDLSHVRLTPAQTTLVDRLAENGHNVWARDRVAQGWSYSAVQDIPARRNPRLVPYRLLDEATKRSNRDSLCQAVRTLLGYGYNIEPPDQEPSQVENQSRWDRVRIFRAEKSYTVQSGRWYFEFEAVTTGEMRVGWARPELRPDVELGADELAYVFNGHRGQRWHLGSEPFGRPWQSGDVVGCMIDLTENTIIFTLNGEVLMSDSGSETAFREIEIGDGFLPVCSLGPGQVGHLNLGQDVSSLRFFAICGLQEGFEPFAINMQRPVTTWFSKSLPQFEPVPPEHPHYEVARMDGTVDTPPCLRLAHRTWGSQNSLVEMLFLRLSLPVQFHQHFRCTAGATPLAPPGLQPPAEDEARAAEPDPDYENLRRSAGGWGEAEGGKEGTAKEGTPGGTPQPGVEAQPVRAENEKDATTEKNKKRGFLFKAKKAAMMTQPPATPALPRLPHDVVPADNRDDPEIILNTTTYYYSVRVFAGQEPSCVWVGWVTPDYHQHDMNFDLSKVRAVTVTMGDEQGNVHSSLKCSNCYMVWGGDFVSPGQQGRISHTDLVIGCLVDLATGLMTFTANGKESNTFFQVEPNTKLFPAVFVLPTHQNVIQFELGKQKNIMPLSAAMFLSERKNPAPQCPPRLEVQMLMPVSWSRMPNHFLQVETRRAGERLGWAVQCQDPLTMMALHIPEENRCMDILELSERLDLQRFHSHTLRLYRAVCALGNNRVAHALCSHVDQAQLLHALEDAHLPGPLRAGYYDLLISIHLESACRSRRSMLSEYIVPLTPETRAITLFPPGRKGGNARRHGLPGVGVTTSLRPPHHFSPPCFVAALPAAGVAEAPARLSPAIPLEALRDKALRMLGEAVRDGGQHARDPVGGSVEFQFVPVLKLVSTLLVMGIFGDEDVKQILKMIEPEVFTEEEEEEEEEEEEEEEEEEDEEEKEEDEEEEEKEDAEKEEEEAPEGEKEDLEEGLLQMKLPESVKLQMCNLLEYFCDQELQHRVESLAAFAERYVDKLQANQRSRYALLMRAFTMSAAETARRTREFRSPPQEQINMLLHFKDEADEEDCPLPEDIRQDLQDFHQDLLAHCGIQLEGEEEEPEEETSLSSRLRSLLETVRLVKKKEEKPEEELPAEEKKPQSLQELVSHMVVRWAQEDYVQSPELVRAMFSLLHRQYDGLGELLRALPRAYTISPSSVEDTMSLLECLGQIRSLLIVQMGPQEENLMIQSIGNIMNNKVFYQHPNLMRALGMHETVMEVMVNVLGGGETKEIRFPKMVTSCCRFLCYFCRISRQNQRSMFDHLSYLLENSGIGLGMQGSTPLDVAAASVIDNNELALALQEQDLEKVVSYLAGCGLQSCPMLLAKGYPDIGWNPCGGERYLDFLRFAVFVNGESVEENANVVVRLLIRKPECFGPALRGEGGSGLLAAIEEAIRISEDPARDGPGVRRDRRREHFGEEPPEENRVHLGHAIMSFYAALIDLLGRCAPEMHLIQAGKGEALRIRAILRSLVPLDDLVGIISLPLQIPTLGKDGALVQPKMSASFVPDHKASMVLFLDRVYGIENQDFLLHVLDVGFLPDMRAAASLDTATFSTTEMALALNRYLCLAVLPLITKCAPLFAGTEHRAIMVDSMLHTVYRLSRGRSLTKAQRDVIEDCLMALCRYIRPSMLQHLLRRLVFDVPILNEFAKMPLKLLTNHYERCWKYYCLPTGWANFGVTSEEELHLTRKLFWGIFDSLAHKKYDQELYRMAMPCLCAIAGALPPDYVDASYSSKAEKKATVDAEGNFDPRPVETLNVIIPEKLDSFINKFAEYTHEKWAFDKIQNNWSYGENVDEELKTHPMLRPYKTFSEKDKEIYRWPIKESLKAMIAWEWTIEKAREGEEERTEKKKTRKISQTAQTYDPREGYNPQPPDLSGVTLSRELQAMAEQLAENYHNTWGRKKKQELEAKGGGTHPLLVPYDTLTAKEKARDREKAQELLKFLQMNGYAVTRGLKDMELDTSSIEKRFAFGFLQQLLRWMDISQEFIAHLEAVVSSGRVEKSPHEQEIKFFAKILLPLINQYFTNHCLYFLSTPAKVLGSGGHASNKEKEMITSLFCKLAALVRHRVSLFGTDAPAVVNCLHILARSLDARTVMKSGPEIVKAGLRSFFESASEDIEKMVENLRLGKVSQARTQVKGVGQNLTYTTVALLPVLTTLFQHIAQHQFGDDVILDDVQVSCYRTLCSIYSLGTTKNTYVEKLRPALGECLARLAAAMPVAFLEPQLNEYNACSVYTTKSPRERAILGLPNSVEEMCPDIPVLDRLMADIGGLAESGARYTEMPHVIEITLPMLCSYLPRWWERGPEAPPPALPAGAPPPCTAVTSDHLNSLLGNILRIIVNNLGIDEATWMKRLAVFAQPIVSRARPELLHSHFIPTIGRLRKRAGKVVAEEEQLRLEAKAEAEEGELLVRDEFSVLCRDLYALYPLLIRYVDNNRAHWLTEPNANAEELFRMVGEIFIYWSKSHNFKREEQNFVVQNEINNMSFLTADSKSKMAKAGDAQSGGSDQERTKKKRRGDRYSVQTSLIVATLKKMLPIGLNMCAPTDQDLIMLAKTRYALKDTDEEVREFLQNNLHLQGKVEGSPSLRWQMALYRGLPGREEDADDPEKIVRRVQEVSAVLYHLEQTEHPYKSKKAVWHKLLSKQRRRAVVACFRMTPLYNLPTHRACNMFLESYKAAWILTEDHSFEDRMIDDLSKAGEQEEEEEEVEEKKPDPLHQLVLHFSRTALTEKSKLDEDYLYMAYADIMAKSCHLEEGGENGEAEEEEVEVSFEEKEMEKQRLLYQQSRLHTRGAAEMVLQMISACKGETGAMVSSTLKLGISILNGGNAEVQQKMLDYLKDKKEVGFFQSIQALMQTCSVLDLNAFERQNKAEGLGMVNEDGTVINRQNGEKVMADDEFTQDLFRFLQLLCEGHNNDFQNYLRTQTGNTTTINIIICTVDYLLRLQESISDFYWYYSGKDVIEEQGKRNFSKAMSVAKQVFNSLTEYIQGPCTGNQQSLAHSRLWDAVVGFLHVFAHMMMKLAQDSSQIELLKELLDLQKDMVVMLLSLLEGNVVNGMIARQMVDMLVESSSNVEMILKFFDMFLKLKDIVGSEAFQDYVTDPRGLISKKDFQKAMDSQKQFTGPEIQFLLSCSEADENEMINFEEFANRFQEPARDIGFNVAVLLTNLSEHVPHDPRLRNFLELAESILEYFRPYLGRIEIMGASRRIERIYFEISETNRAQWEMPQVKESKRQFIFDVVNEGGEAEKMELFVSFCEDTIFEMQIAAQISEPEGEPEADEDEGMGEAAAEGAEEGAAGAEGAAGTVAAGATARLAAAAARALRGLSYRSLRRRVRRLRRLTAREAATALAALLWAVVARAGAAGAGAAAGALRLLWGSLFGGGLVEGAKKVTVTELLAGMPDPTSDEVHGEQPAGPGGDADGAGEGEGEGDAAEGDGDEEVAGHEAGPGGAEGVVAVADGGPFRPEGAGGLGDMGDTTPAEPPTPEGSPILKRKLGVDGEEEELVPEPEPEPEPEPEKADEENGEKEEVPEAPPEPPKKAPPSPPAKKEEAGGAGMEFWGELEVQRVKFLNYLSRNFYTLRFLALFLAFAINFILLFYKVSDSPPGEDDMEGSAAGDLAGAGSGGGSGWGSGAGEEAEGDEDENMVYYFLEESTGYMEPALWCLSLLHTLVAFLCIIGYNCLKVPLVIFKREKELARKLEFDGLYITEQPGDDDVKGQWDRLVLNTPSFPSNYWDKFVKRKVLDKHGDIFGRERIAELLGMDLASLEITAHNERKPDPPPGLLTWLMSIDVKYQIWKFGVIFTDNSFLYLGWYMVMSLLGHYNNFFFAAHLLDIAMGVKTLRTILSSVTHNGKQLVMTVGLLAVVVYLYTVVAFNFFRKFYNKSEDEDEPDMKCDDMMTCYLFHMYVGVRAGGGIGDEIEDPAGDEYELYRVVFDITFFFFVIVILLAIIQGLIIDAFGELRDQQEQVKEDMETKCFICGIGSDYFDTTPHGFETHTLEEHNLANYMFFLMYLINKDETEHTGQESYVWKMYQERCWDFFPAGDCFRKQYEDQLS

In the case of φ-Xibalbin3-Xt3a, the “rel Po” value (ryanodine receptor; Woearly after 10nM Xt3a vs 1 micoM Ca, CT1124n) is reported as 1.432, the “rel Po” value (ryanodine receptor; Woearly after 10nM Xt3a vs 1 micoM Ca, CT1124p) is reported as 0.937 and the “rel Po” value (ryanodine receptor; Woearly after 10nM Xt3a vs 1 micoM Ca, CT1125p (r7)) is reported as 0.4348. For the same substance, the “rel Po” value (ryanodine receptor; Woearly after 10nM Xt3a vs 1 micoM Ca, CT1125p (r12)) was 0.3976, the “rel Po” value (ryanodine receptor; Woearly after 10nM Xt3a vs 1 micoM Ca, CT1126n) was 1.917 and the “rel Po” value (ryanodine receptor; Woearly after 10nM Xt3a vs 1 micoM Ca, CT1126p) was 0.1557. The “rel Po” value (ryanodine receptor; Woearly after 10nM Xt3a vs 1 micoM Ca, CT1129p) was 0.23, the “rel Po” value (ryanodine receptor; Woearly after 10nM Xt3a vs 1 micoM Ca, mean of 7 records) was 0.7864 and the “rel Po” value (ryanodine receptor; Woearly after 1 microM Xt3a vs 1 micoM Ca, CT1134 n) was 4.4537. The “rel Po” value (ryanodine receptor; Woearly after 1 microM Xt3a vs 1 micoM Ca, CT1134 p) was 3.797, the “rel Po” value (ryanodine receptor; Woearly after 1 microM Xt3a vs 1 micoM Ca, CT1135 n) was 34.6466 and the “rel Po” value (ryanodine receptor; Woearly after 1 microM Xt3a vs 1 micoM Ca, CT1136 n) was 1.926. The “rel Po” value (ryanodine receptor; Woearly after 1 microM Xt3a vs 1 micoM Ca, CT1136 p) was 1.125, the “rel Po” value (ryanodine receptor; Woearly after 1 microM Xt3a vs 1 micoM Ca, CT1137 n) was 1.615 and the “rel Po” value (ryanodine receptor; Woearly after 1 microM Xt3a vs 1 micoM Ca, CT1137p) was 7.5. The “rel Po” value (ryanodine receptor; Woearly after 1 microM Xt3a vs 1 micoM Ca, CT1138n) was 1, the “rel Po” value (ryanodine receptor; Woearly after 1 microM Xt3a vs 1 micoM Ca, CT1138p) was 8.033 and the “rel Po” value (ryanodine receptor; Woearly after 1 microM Xt3a vs 1 micoM Ca, mean (CT1135 p cell empty)) was 7.122. The “rel Po” value (ryanodine receptor; Wolate after 10nM Xt3a vs 1 micoM Ca, CT1124n) was 0.8317, the “rel Po” value (ryanodine receptor; Wolate after 10nM Xt3a vs 1 micoM Ca, CT1124p) was 12.1926 and the “rel Po” value (ryanodine receptor; Wolate after 10nM Xt3a vs 1 micoM Ca, CT1125p (r7)) was 0.7826. The “rel Po” value (ryanodine receptor; Wolate after 10nM Xt3a vs 1 micoM Ca, CT1125p (r12)) was 0.9398, the “rel Po” value (ryanodine receptor; Wolate after 10nM Xt3a vs 1 micoM Ca, CT1126n) was 0.9549 and the “rel Po” value (ryanodine receptor; Wolate after 10nM Xt3a vs 1 micoM Ca, CT1126p) was 1.131. For the same substance, the “rel Po” value (ryanodine receptor; Wolate after 10nM Xt3a vs 1 micoM Ca, CT1129p) was 0.13, the “rel Po” value (ryanodine receptor; Wolate after 10nM Xt3a vs 1 micoM Ca, mean of 7 records) was 2.423 and the “rel Po” value (ryanodine receptor; Wolate after 1 microM Xt3a vs 1 micoM Ca, CT1134 n) was 20.9074. For the same substance, the “rel Po” value (ryanodine receptor; Wolate after 1 microM Xt3a vs 1 micoM Ca, CT1134 p) was 6.491, the “rel Po” value (ryanodine receptor; Wolate after 1 microM Xt3a vs 1 micoM Ca, CT1135 n) was 34.2069 and the “rel Po” value (ryanodine receptor; Wolate after 1 microM Xt3a vs 1 micoM Ca, CT1135 p) was 0.02609. The “rel Po” value (ryanodine receptor; Wolate after 1 microM Xt3a vs 1 micoM Ca, CT1136 n) was 4.7037, the “rel Po” value (ryanodine receptor; Wolate after 1 microM Xt3a vs 1 micoM Ca, CT1136 p) was 2 and the “rel Po” value (ryanodine receptor; Wolate after 1 microM Xt3a vs 1 micoM Ca, CT1137 n) was 0.6923. For the same substance, the “rel Po” value (ryanodine receptor; Wolate after 1 microM Xt3a vs 1 micoM Ca, CT1137p) was 0.75, the “rel Po” value (ryanodine receptor; Wolate after 1 microM Xt3a vs 1 micoM Ca, CT1138n) was 2.952 and the “rel Po” value (ryanodine receptor; Wolate after 1 microM Xt3a vs 1 micoM Ca, CT1138p) was 2.133. The “rel Po” value (ryanodine receptor; Wolate after 1 microM Xt3a vs 1 micoM Ca, mean of 10 records) was 7.486, the “Ca2+ response relative to control response” value (α7 nAChR; replicate 1) was 99.1155% and the “Ca2+ response relative to control response” value (α7 nAChR; replicate 2) was 100.788%. For the same substance, the “Ca2+ response relative to control response” value (α7 nAChR; replicate 3) was 96.222% and the “inhibition of Ca2+ responses” value (α7 nAChR; Xt3a 3 µM) was “did not inhibit Ca^2+ responses”.

From paper PMC9950431, “A bivalent remipede toxin promotes calcium release via ryanodine receptor activation” (Nature Communications, 2023)
